Assay results reported in ChEMBL document CHEMBL1687817, “Tigecycline population pharmacokinetics in patients with community- or hospital-acquired pneumonia” (Antimicrob Agents Chemother, 2010).

Key:
Assay type in all cases: ADME, organism-based
[1] = Clearance in patient with community or hospital-acquired pneumonia at […], iv loading dose followed by […] administered every 12 hrs; settings: human, in vivo
[2] = test system: Homo sapiens; assay: Distributional clearance in patient with community or hospital-acquired pneumonia at […], iv loading dose followed by […] administered every 12 hrs; settings: in vivo
[3] = test system: Homo sapiens; assay: Volume of distribution at steady state in patient with community or hospital-acquired pneumonia at […], iv loading dose followed by […] administered every 12 hrs; settings: in vivo
[4] = Volume of distribution in central compartment in patient with community or hospital-acquired pneumonia at […], iv loading dose followed by […] administered every 12 hrs; settings: human, in vivo, read-out: Vc

clearance [1]: 320 mL/min | CLd [2]: 85.1 L/h | Vdss [3]: 398 L | Vd [4]: 65.2 L
SMILES: CN(C)c1cc(NC(=O)CNC(C)(C)C)c(O)c2c1C[C@H]1C[C@H]3[C@H](N(C)C)C(O)=C(C(N)=O)C(=O)[C@@]3(O)C(O)=C1C2=O [TIGECYCLINE]
